Measurements reported in patent US4396543A.
≈ marks a conversion by molar mass, not a printed value. Where “and” joins values, the source holds several entries; their conditions need not be identical. Identical values can stand only once.

Assays:
[1] = system: Staphylococcus epidermidis EPI1; type: cell-based; details: two values = two experiments, 2 median of five, 19 median of three
[2] = system: Streptococcus Group D X66; assay: agar-dilution MIC; type: cell-based; details: two values = two experiments, 2 median of five, 19 median of three
Description: (§1) In Table VII activity is measured by the minimal inhibitory concentration (MIC), i.e. the lowest concentration of compound at which growth of the microorganism is inhibited by the test compound.

[3] = system: Streptococcus pyogenes; assay: in vivo experimental bacterial infection, ED50; details: mice; for ED50 Values Streptococcus pyogenes Oral: two doses orally; for ED50 Values Streptococcus pyogenes Subcutaneous: two doses subcutaneously, two values = two experiments
[4] = system: Staphylococcus aureus; assay: in vivo experimental bacterial infection, ED50; details: mice, two doses subcutaneously; two values = two experiments
[5] = system: Streptococcus Group D 9960; assay: agar-dilution MIC; type: cell-based; details: two values = two experiments, 2 median of five, 19 median of three
Description: as §1

[6] = system: Streptococcus pyogenes C203; assay: agar-dilution MIC; type: cell-based; details: two values = two experiments, 2 median of five, 19 median of three
[7] = system: Staphylococcus aureus X400; assay: agar-dilution MIC; type: cell-based; details: Staphylococcus aureus X400, methicillin-resistant strain; two values = two experiments; 2 median of five, 19 median of three
Description: as §1

[8] = system: Staphylococcus epidermidis EPI2; assay: agar-dilution MIC; type: cell-based; details: two values = two experiments, 2 median of five, 19 median of three
[9] = system: Staphylococcus aureus V41; assay: agar-dilution MIC; type: cell-based; details: Staphylococcus aureus V41, penicillin-resistant strain; two values = two experiments; 2 median of five, 19 median of three
Description: as §1

[10] = toxicity test, LD50; details: mouse, in vivo, iv; administered intravenously; read-out: LD50 (mg/kg) in Mice
[11] = system: Staphylococcus aureus X1.1; assay: agar-dilution MIC; type: cell-based; details: two values = two experiments, 2 median of five, 19 median of three experiments
Description: as §1

[12] = system: Streptococcus pneumoniae Park I; type: cell-based; details: two values = two experiments, 2 median of five, 19 median of three
Description: as §1

| Compound | MIC [1] [µg/mL] | MIC [2] [µg/mL] | ED50 Values Streptococcus pyogenes Oral [3] [mg/kg × 2] | ED50 Values Streptococcus pyogenes Subcutaneous [3] | ED50 Values Staphylococcus aureus Subcutaneous [4] | MIC [5] [µg/mL] | MIC [6] [µg/mL] | MIC [7] [µg/mL] | MIC [8] [µg/mL] | MIC [9] [µg/mL] | LD50 [10] [mg/kg] | MIC [11] [µg/mL] | MIC [12] [µg/mL] |
| --- | --- | --- | --- | --- | --- | --- | --- | --- | --- | --- | --- | --- | --- |
| CCCCCCCCCCCC(=O)N[C@H](Cc1ccccc1)C(=O)N[C@@H](Cc1c[nH]c2ccccc12)C(=O)N[C@H](CC(N)=O)C(=O)N[C@@H](CC(=O)O)C(=O)N[C@@H]1C(=O)NCC(=O)N[C@@H](CCCN)C(=O)N[C@@H](CC(=O)O)C(=O)N[C@H](C)C(=O)N[C@@H](CC(=O)O)C(=O)NCC(=O)N[C@H](CO)C(=O)N[C@@H]([C@H](C)CC(=O)O)C(=O)N[C@@H](CC(=O)c2ccccc2N)C(=O)O[C@@H]1C [Compound 1] | 2 (≈ 1.11 µM) | 1 (≈ 0.557 µM) | > 200 | < 0.25 mg/kg × 2 and 0.21 mg/kg × 2 | 1.4 mg/kg × 2 and 2.05 mg/kg × 2 | 0.5 (≈ 0.278 µM) | 0.125 (≈ 0.0696 µM) | 1 (≈ 0.557 µM) | 1 (≈ 0.557 µM) | 0.5 (≈ 0.278 µM) | 250 | 0.5 (≈ 0.278 µM) |  |
| CCCCCCCCCCCC(=O)NCCCCC(=O)N[C@@H](Cc1c[nH]c2ccccc12)C(=O)N[C@H](CC(N)=O)C(=O)N[C@@H](CC(=O)O)C(=O)N[C@@H]1C(=O)NCC(=O)N[C@@H](CCCN)C(=O)N[C@@H](CC(=O)O)C(=O)N[C@H](C)C(=O)N[C@@H](CC(=O)O)C(=O)NCC(=O)N[C@H](CO)C(=O)N[C@@H]([C@H](C)CC(=O)O)C(=O)N[C@@H](CC(=O)c2ccccc2N)C(=O)O[C@@H]1C [Compound 2] | 4 (≈ 2.29 µM) | 32 (≈ 18.3 µM) | 117 |  | 0.65 mg/kg × 2 and 0.93 mg/kg × 2 | 8 (≈ 4.58 µM) | 1 (≈ 0.572 µM) | 4 (≈ 2.29 µM) | 2 (≈ 1.14 µM) | 4 (≈ 2.29 µM) | > 600 | 4 (≈ 2.29 µM) | 4 (≈ 2.29 µM) |
| CCCCCCCCCCCC(=O)Nc1ccc(C(=O)N[C@@H](Cc2c[nH]c3ccccc23)C(=O)N[C@H](CC(N)=O)C(=O)N[C@@H](CC(=O)O)C(=O)N[C@@H]2C(=O)NCC(=O)N[C@@H](CCCN)C(=O)N[C@@H](CC(=O)O)C(=O)N[C@H](C)C(=O)N[C@@H](CC(=O)O)C(=O)NCC(=O)N[C@H](CO)C(=O)N[C@@H]([C@H](C)CC(=O)O)C(=O)N[C@@H](CC(=O)c3ccccc3N)C(=O)O[C@@H]2C)cc1 [Compound 4] |  |  | > 200 | 18.8 mg/kg × 2 | < 5 mg/kg × 2 |  |  | 8 (≈ 4.53 µM) |  |  | > 300 | 4 (≈ 2.26 µM) |  |
| CCCCCCCC(=O)N[C@@H](Cc1ccccc1)C(=O)N[C@@H](Cc1c[nH]c2ccccc12)C(=O)N[C@H](CC(N)=O)C(=O)N[C@@H](CC(=O)O)C(=O)N[C@@H]1C(=O)NCC(=O)N[C@@H](CCCN)C(=O)N[C@@H](CC(=O)O)C(=O)N[C@H](C)C(=O)N[C@@H](CC(=O)O)C(=O)NCC(=O)N[C@H](CO)C(=O)N[C@@H]([C@H](C)CC(=O)O)C(=O)N[C@@H](CC(=O)c2ccccc2N)C(=O)O[C@@H]1C [Compound 17] | 8 (≈ 4.6 µM) | 128 (≈ 73.6 µM) | > 200 | 1.48 mg/kg × 2 | 2.58 mg/kg × 2 | 32 (≈ 18.4 µM) | 2 (≈ 1.15 µM) | 8 (≈ 4.6 µM) | 8 (≈ 4.6 µM) | 8 (≈ 4.6 µM) | 450 | 4 (≈ 2.3 µM) |  |
| CCCCCCCCC(=O)N[C@@H](Cc1ccccc1)C(=O)N[C@@H](Cc1c[nH]c2ccccc12)C(=O)N[C@H](CC(N)=O)C(=O)N[C@@H](CC(=O)O)C(=O)N[C@@H]1C(=O)NCC(=O)N[C@@H](CCCN)C(=O)N[C@@H](CC(=O)O)C(=O)N[C@H](C)C(=O)N[C@@H](CC(=O)O)C(=O)NCC(=O)N[C@H](CO)C(=O)N[C@@H]([C@H](C)CC(=O)O)C(=O)N[C@@H](CC(=O)c2ccccc2N)C(=O)O[C@@H]1C [Compound 18] | 4 (≈ 2.28 µM) | 32 (≈ 18.2 µM) | 184 | 0.59 mg/kg × 2 | 1.38 mg/kg × 2 | 8 (≈ 4.56 µM) | 0.5 (≈ 0.285 µM) | 4 (≈ 2.28 µM) | 2 (≈ 1.14 µM) | 2 (≈ 1.14 µM) | > 600 | 2 (≈ 1.14 µM) |  |
| CCCCCCCCCCC(=O)N[C@@H](Cc1ccccc1)C(=O)N[C@@H](Cc1c[nH]c2ccccc12)C(=O)N[C@H](CC(N)=O)C(=O)N[C@@H](CC(=O)O)C(=O)N[C@@H]1C(=O)NCC(=O)N[C@@H](CCCN)C(=O)N[C@@H](CC(=O)O)C(=O)N[C@H](C)C(=O)N[C@@H](CC(=O)O)C(=O)NCC(=O)N[C@H](CO)C(=O)N[C@@H]([C@H](C)CC(=O)O)C(=O)N[C@@H](CC(=O)c2ccccc2N)C(=O)O[C@@H]1C [Compound 20] | 2 (≈ 1.12 µM) | 4 (≈ 2.24 µM) | > 200 | 0.35 mg/kg × 2 | 1.25 mg/kg × 2 | 2 (≈ 1.12 µM) | 0.125 (≈ 0.0701 µM) | 2 (≈ 1.12 µM) | 2 (≈ 1.12 µM) | 0.5 (≈ 0.281 µM) | 400 | 0.5 (≈ 0.281 µM) |  |
| CCCCCCCCCCCCC(=O)N[C@@H](Cc1ccccc1)C(=O)N[C@@H](Cc1c[nH]c2ccccc12)C(=O)N[C@H](CC(N)=O)C(=O)N[C@@H](CC(=O)O)C(=O)N[C@@H]1C(=O)NCC(=O)N[C@@H](CCCN)C(=O)N[C@@H](CC(=O)O)C(=O)N[C@H](C)C(=O)N[C@@H](CC(=O)O)C(=O)NCC(=O)N[C@H](CO)C(=O)N[C@@H]([C@H](C)CC(=O)O)C(=O)N[C@@H](CC(=O)c2ccccc2N)C(=O)O[C@@H]1C [Compound 21] | 2 (≈ 1.11 µM) | 1 (≈ 0.553 µM) | > 200 | 0.14 mg/kg × 2 | 0.76 mg/kg × 2 | 0.25 (≈ 0.138 µM) | 0.125 (≈ 0.0691 µM) | 2 (≈ 1.11 µM) | 2 (≈ 1.11 µM) | 0.5 (≈ 0.276 µM) |  | 0.5 (≈ 0.276 µM) |  |
| CCCCCCCCCCCCCC(=O)N[C@@H](Cc1ccccc1)C(=O)N[C@@H](Cc1c[nH]c2ccccc12)C(=O)N[C@H](CC(N)=O)C(=O)N[C@@H](CC(=O)O)C(=O)N[C@@H]1C(=O)NCC(=O)N[C@@H](CCCN)C(=O)N[C@@H](CC(=O)O)C(=O)N[C@H](C)C(=O)N[C@@H](CC(=O)O)C(=O)NCC(=O)N[C@H](CO)C(=O)N[C@@H]([C@H](C)CC(=O)O)C(=O)N[C@@H](CC(=O)c2ccccc2N)C(=O)O[C@@H]1C [Compound 22] | 4 (≈ 2.19 µM) | 1 (≈ 0.548 µM) | > 200 | < 0.27 mg/kg × 2 and 0.36 mg/kg × 2 | 4.8 mg/kg × 2 | 0.5 (≈ 0.274 µM) | 0.25 (≈ 0.137 µM) | 2 (≈ 1.1 µM) | 4 (≈ 2.19 µM) | 1 (≈ 0.548 µM) |  | 0.5 (≈ 0.274 µM) |  |
| CCCCCCCCCCC(=O)N[C@@H](Cc1ccccc1)C(=O)NCCC[C@@H]1NC(=O)CNC(=O)[C@@H](NC(=O)[C@H](CC(=O)O)NC(=O)[C@@H](CC(N)=O)NC(=O)[C@@H](N)Cc2c[nH]c3ccccc23)[C@@H](C)OC(=O)[C@H](CC(=O)c2ccccc2N)NC(=O)[C@H]([C@H](C)CC(=O)O)NC(=O)[C@@H](CO)NC(=O)CNC(=O)[C@H](CC(=O)O)NC(=O)[C@@H](C)NC(=O)[C@H](CC(=O)O)NC1=O [Compound 26] | > 128 | > 128 | > 200 | > 18 mg/kg × 2 | 9.2 mg/kg × 2 | 32 (≈ 18 µM) | 1 (≈ 0.561 µM) | > 128 | > 128 | > 128 |  | 8 (≈ 4.49 µM) |  |
| CCCCCC(=O)N[C@@H](Cc1c[nH]c2ccccc12)C(=O)NCCC[C@@H]1NC(=O)CNC(=O)[C@@H](NC(=O)[C@H](CC(=O)O)NC(=O)[C@@H](CC(N)=O)NC(=O)[C@H](Cc2c[nH]c3ccccc23)NC(=O)CCCCCCCCC(C)CC)[C@@H](C)OC(=O)[C@H](CC(=O)c2ccccc2N)NC(=O)[C@H]([C@H](C)CC(=O)O)NC(=O)[C@@H](CO)NC(=O)CNC(=O)[C@H](CC(=O)O)NC(=O)[C@@H](C)NC(=O)[C@H](CC(=O)O)NC1=O (stereo partly drawn) [Compound 29] |  | 8 (≈ 4.11 µM) | > 200 | 10.6 mg/kg × 2 |  | 32 (≈ 16.4 µM) |  | 1 (≈ 0.514 µM) |  |  | 37.5 |  |  |
